Reference: patent US7465722B2, “Biphenyl vasopressin agonists” (Wyeth, priority 2001, dated 2008)

Key:
Vasopressin V2 = target: T1, Vasopressin V2 (Rattus norvegicus, UniProt Q00788); experiment: Vasopressin V2 agonist effects of test compounds in normal conscious water-loaded rats; assay type: in vivo; settings: oral dose of 10 mg/Kg, urine collected for four hours, Sprague-Dawley (CD) rats; for Urine Volume (% decrease): percent decrease in urine volume vs control; for Urinary Osmolality (% increase): percent increase in osmolality vs control
T1 construct: Vasopressin V2 Agonist Effects of Test Compounds in Normal Conscious Water-Loaded Rats; from tissue; host or cells: whole animal: conscious Sprague-Dawley rats (kidney collecting ducts in vivo)
T1 sequence (Q00788 whole entry): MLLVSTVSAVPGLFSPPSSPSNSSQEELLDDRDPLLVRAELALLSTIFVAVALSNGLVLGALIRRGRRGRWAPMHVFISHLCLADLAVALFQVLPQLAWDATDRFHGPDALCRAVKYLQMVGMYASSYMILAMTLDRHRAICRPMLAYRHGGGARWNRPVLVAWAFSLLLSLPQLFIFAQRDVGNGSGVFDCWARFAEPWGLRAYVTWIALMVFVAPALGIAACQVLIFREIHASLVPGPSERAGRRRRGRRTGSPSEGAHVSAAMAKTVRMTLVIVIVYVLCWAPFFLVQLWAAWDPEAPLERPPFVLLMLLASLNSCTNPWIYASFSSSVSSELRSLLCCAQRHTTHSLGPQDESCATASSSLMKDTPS
From the text: Vasopressin V2 Agonist Effects of Test Compounds in Normal Conscious Water-Loaded Rats
Male or female normotensive Sprague-Dawley rats (Charles River Laboratories, Inc., Kingston, N.Y.) of 350-500 g body weight were supplied with standard rodent diet (Purina Rodent Lab. Chow 5001) and water ad libitum. On the day of test, rats were placed individually into metabolic cages equipped with devices to separate the feces from the urine and containers for collection of urine. A test compound or a reference agent was given at an oral dose of 10 mg/Kg in a volume of 10 mL/Kg. The vehicle used was 2.5% preboiled corn starch in 20% dimethylsulfoxide (DMSO). Thirty minutes after dosing the test compound, rats were gavaged with water at 30 mL/Kg into the stomach using a feeding needle. During the test, rats were not provided with water or food. Urine was collected for four hours after dosing of the test compound. At the end of four hours, urine volume was measured. Urinary osmolality was determined using a Fiske One-Ten Osmometer (Fiske Associates, Norwood, Mass., 02062) or an Advanced CRYOMATIC Osmometer, Model 3C2 (Advanced Instruments, Norwood, Mass.). Determinations of Na^+, K^+ and Cl^− ion were carried out using ion specific electrodes in a Beckman SYNCHRON ELISE Electrolyte System analyzer. The urinary osmolality should increase proportionally. In the screening test, two rats were used for each compound. If the difference in the urine volume of the two rats was greater than 50%, a third rat was used.

Row | Compound | melting point | Urine Volume (% decrease) (Vasopressin V2) | Urinary Osmolality (% increase) (Vasopressin V2)
1 | CN1c2ccccc2CN(C(=O)c2ccc(-c3ccccc3)cc2)c2ccccc21 [Example 7, [1,1′-Biphenyl]-4-yl-(5-methyl-5,11-dihydro-10H-dibenzo[b,e][1,4]diazepin-10-yl)methanone] | 198 to 201 °C | 70% | 189%
2 | O=C(c1ccc(-c2ccccc2)cc1)N1Cc2ccccc2Nc2ccccc21 [Example 6, [1,1′-Biphenyl]-4-yl-(5,11-dihydro-10H-dibenzo[b,e][1,4]diazepin-10-yl)methanone] | 180 to 182 °C | 87% | 247%
3 | CN1c2ccccc2N(C(=O)c2ccc(-c3ccccc3)cc2)Cc2cccnc21 [Example 5, [1,1′-Biphenyl]-4-yl-(11-methyl-5,11-dihydro-benzo[b]pyrido[2,3-e][1,4]diazepin-6-yl)-methanone] | 220 to 223 °C | 22% | 26%
4 | O=C(c1ccc(-c2ccccc2)cc1)N1CCCCc2sccc21 [Example 8, [1,1′-Biphenyl]-4-yl-(5,6,7,8-tetrahydro-thieno[3,2-b]azepin-4-yl)-methanone] | 164 to 166 °C | 35% | 73%
5 | COc1ccc(-c2ccc(C(=O)N3Cc4cccn4Cc4ccccc43)cc2)cc1 [Example 3, (10,11-Dihydro-5H-pyrrolo[2,1-c][1,4]benzodiazepin-10-yl)-(4′-methoxy[1,1′-biphenyl]-4-yl)-methanone] | 187 to 189 °C | 18% | 78%
6 | O=C(c1ccc(-c2ccccc2)cc1)N1Cc2cccnc2Nc2ccccc21 [Example 4, [1,1′-Biphenyl]-4-yl-(5,11-dihydro-benzo[b]pyrido[2,3-e][1,4]diazepin-6-yl)-methanone] | 175 to 177 °C | 56% | 151%
7 | Cc1cccc(-c2ccc(C(=O)N3Cc4cccn4Cc4ccccc43)cc2)c1 [Example 2, (10,11-Dihydro-5H-pyrrolo[2,1-c][1,4]benzodiazepin-10-yl)-(3′-methyl-[1,1′-biphenyl]-4-yl)-methanone] | 128 to 130 °C | 27% | 33%
8 | O=C(c1ccc(-c2ccccc2)nc1)N1Cc2cccn2Cc2ccccc21 [Example 9, (5H,11H-Benzo[e]pyrrolo[1,2-a][1,4]diazepin-10-yl)-(6-phenyl-pyridin-3-yl)-methanone] | 171 to 174 °C | 62% | 156%
9 | COc1ccccc1-c1ccc(C(=O)N2Cc3cccn3Cc3ccccc32)cc1 [Example 1, (2′-Methoxy-[1,1′-biphenyl]-4-yl)-(5H,11H-pyrrolo[2,1-c][1,4]benzodiazepin-10-yl)-methanone] | 145 to 147 °C | 67% | 163%
10 | COc1ccc(-c2ccc(C(=O)N3Cc4cccn4Cc4ccccc43)c(C)c2)cc1 [Example 10, (5H,11H-Benzo[e]pyrrolo[1,2-a][1,4]diazepin-10-yl)-(4′-methoxy-3-methyl-[1,1′-biphenyl]-4-yl)-methanone] |  | 60% | 234%
